Reference: ChEMBL document CHEMBL1201862, “PubChem BioAssay data set” (2004)
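Step 1: Grow cells in 96-well plates. Step 2: Expose to compound for 48 hours at 5 concentrations. Step 3: Interpolate endpoints linearly; if unreached, use highest concentration. GI50 = concentration required for 50% inhibition of growth.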 The source made the active and inactive calls. Cut-off read from the data, not from the text of the source: active = GI50 up to about 1.1 µM and inactive = higher.

Assays:
Assay in all cases: NCI-60 cell line screen, 48 h
[1] = test system: NCI-H460
[2] = test system: NCI-H226
[3] = test system: SF-268
[4] = test system: SF-295
[5] = test system: HCT-116
[6] = test system: MOLT-4
[7] = test system: DU-145
[8] = test system: MCF7
[9] = test system: RPMI-8226
[10] = test system: SK-MEL-5
[11] = test system: A549
[12] = test system: OVCAR-8
[13] = test system: CCRF-CEM
[14] = test system: Hs-578T
[15] = test system: COLO 205
[16] = test system: OVCAR-4
[17] = test system: HOP-92
[18] = test system: NCI-H23
[19] = test system: SNB-75
[20] = test system: SW-620
[21] = test system: HL-60
[22] = test system: 786-0
[23] = test system: NCI-H522
[24] = test system: MDA-N
[25] = test system: SK-OV-3
[26] = test system: RXF 393
[27] = test system: ACHN
[28] = test system: CAKI-1
[29] = test system: EKVX
[30] = test system: SF-539
[31] = test system: UACC-62
[32] = test system: HT-29
[33] = test system: M14
[34] = test system: MDA-MB-435
[35] = test system: UACC-257
[36] = test system: UO-31
[37] = test system: LOX IMVI
[38] = test system: HCT-15
[39] = test system: T47D
[40] = test system: A498
[41] = test system: SN12C
[42] = test system: HCC 2998
[43] = test system: NCI/ADR-RES
[44] = test system: HOP-62
[45] = test system: OVCAR-3
[46] = test system: OVCAR-5
[47] = test system: KM12
[48] = test system: TK-10
[49] = test system: SK-MEL-28
[50] = test system: IGROV-1
[51] = test system: PC-3
[52] = test system: SR
[53] = test system: SK-MEL-2
[54] = test system: K562
[55] = test system: MDA-MB-231
[56] = test system: U-251
[57] = test system: Malme-3M
[58] = test system: SNB-19

CC(C(=O)COCc1ccccc1)P1(=O)OC(C)(C)CN1C(C)(C)C (configuration not stated)
GI50 [1]: > 100 µM (inactive)
GI50 [2]: > 100 µM (inactive)
GI50 [3]: > 100 µM (inactive)
GI50 [4]: > 100 µM (inactive)
GI50 [5]: > 100 µM (inactive)
GI50 [6]: > 100 µM (inactive)
GI50 [7]: > 100 µM (inactive)
GI50 [8]: > 100 µM (inactive)
GI50 [9]: > 100 µM (inactive)
GI50 [10]: > 100 µM (inactive)
GI50 [11]: > 100 µM (inactive)
GI50 [12]: > 100 µM (inactive)
GI50 [13]: > 100 µM (inactive)
GI50 [14]: > 100 µM (inactive)
GI50 [15]: > 100 µM (inactive)
GI50 [16]: 28.8 µM (inactive)
GI50 [17]: > 100 µM (inactive)
GI50 [18]: > 100 µM (inactive)
GI50 [19]: 54.7 µM (inactive)
GI50 [20]: > 100 µM (inactive)
GI50 [21]: > 100 µM (inactive)
GI50 [22]: > 100 µM (inactive)
GI50 [23]: > 100 µM (inactive)
GI50 [24]: > 100 µM (inactive)
GI50 [25]: > 100 µM (inactive)
GI50 [26]: > 100 µM (inactive)
GI50 [27]: > 100 µM (inactive)
GI50 [28]: > 100 µM (inactive)
GI50 [29]: > 100 µM (inactive)
GI50 [30]: > 100 µM (inactive)
GI50 [31]: > 100 µM (inactive)
GI50 [32]: > 100 µM (inactive)
GI50 [33]: > 100 µM (inactive)
GI50 [34]: > 100 µM (inactive)
GI50 [35]: > 100 µM (inactive)
GI50 [36]: > 100 µM (inactive)
GI50 [37]: > 100 µM (inactive)
GI50 [38]: > 100 µM
GI50 [39]: > 100 µM (inactive)
GI50 [40]: > 100 µM (inactive)
GI50 [41]: > 100 µM (inactive)
GI50 [42]: > 100 µM (inactive)
GI50 [43]: > 100 µM (inactive)
GI50 [44]: > 100 µM (inactive)
GI50 [45]: > 100 µM (inactive)
GI50 [46]: 49.4 µM (inactive)
GI50 [47]: > 100 µM (inactive)
GI50 [48]: > 100 µM (inactive)

O=C(O)CCNc1ncc2c(n1)-c1ccccc1OC2
GI50 [1]: > 100 µM (inactive)
GI50 [49]: > 100 µM (inactive)
GI50 [50]: 36.2 µM (inactive)
GI50 [2]: > 100 µM (inactive)
GI50 [51]: > 100 µM (inactive)
GI50 [3]: > 100 µM (inactive)
GI50 [4]: > 100 µM (inactive)
GI50 [5]: > 100 µM (inactive)
GI50 [6]: > 100 µM (inactive)
GI50 [7]: > 100 µM (inactive)
GI50 [8]: > 100 µM (inactive)
GI50 [9]: > 100 µM (inactive)
GI50 [10]: > 100 µM (inactive)
GI50 [11]: > 100 µM (inactive)
GI50 [12]: > 100 µM (inactive)
GI50 [13]: > 100 µM (inactive)
GI50 [14]: 61 µM (inactive)
GI50 [52]: > 100 µM (inactive)
GI50 [53]: > 100 µM (inactive)
GI50 [15]: > 100 µM (inactive)
GI50 [54]: > 100 µM (inactive)
GI50 [16]: > 100 µM (inactive)
GI50 [17]: 29 µM (inactive)
GI50 [18]: > 100 µM (inactive)
GI50 [19]: 28.8 µM (inactive)
GI50 [55]: > 100 µM (inactive)
GI50 [20]: > 100 µM (inactive)
GI50 [21]: > 100 µM (inactive)
GI50 [22]: > 100 µM (inactive)
GI50 [56]: > 100 µM (inactive)
GI50 [23]: > 100 µM (inactive)
GI50 [24]: > 100 µM (inactive)
GI50 [25]: > 100 µM (inactive)
GI50 [26]: > 100 µM (inactive)
GI50 [27]: > 100 µM (inactive)
GI50 [28]: > 100 µM (inactive)
GI50 [29]: 61.7 µM (inactive)
GI50 [30]: > 100 µM (inactive)
GI50 [31]: > 100 µM (inactive)
GI50 [32]: > 100 µM (inactive)
GI50 [57]: > 100 µM (inactive)
GI50 [33]: > 100 µM (inactive)
GI50 [34]: > 100 µM (inactive)
GI50 [35]: > 100 µM (inactive)
GI50 [36]: > 100 µM (inactive)
GI50 [37]: > 100 µM (inactive)
GI50 [38]: > 100 µM
GI50 [41]: > 100 µM (inactive)
GI50 [58]: > 100 µM (inactive)
GI50 [43]: > 100 µM (inactive)
GI50 [44]: > 100 µM (inactive)
GI50 [45]: > 100 µM (inactive)
GI50 [46]: > 100 µM (inactive)
GI50 [47]: > 100 µM (inactive)
GI50 [48]: > 100 µM (inactive)

O=C(CCl)N1CCN(c2ccccc2)CC1
GI50 [1]: 18.8 µM (inactive)
GI50 [49]: 18.3 µM (inactive)
GI50 [50]: 24.1 µM (inactive)
GI50 [51]: 40.9 µM (inactive)
GI50 [3]: 14.5 µM (inactive)
GI50 [4]: 19.1 µM (inactive)
GI50 [5]: 18.3 µM (inactive)
GI50 [6]: 27.2 µM (inactive)
GI50 [7]: > 100 µM (inactive)
GI50 [8]: 19.5 µM (inactive)
GI50 [9]: 24.9 µM (inactive)
GI50 [10]: 16.3 µM (inactive)
GI50 [11]: 22.6 µM (inactive)
GI50 [12]: 32.1 µM (inactive)
GI50 [13]: 26.7 µM (inactive)
GI50 [14]: 32.8 µM (inactive)
GI50 [52]: 26.7 µM (inactive)
GI50 [15]: 21.5 µM (inactive)
GI50 [54]: 36.4 µM (inactive)
GI50 [16]: 17.2 µM (inactive)
GI50 [17]: 21.4 µM (inactive)
GI50 [18]: 18.1 µM (inactive)
GI50 [19]: 16.7 µM (inactive)
GI50 [20]: 23.4 µM (inactive)
GI50 [21]: 20 µM (inactive)
GI50 [22]: 15.9 µM (inactive)
GI50 [56]: 19.5 µM (inactive)
GI50 [24]: 22.6 µM (inactive)
GI50 [25]: 70.1 µM (inactive)
GI50 [26]: 19.1 µM (inactive)
GI50 [27]: 24.4 µM (inactive)
GI50 [28]: 15.8 µM (inactive)
GI50 [29]: 24.5 µM (inactive)
GI50 [32]: 23.6 µM (inactive)
GI50 [57]: 23.6 µM (inactive)
GI50 [33]: 17.7 µM (inactive)
GI50 [35]: 23.2 µM (inactive)
GI50 [36]: 17.9 µM (inactive)
GI50 [38]: 20.1 µM
GI50 [39]: 21.9 µM (inactive)
GI50 [40]: 25.9 µM (inactive)
GI50 [58]: 37.7 µM (inactive)
GI50 [42]: 17.6 µM (inactive)
GI50 [43]: 44.1 µM (inactive)
GI50 [44]: 19.7 µM (inactive)
GI50 [46]: 20.6 µM (inactive)
GI50 [47]: 19.3 µM (inactive)
GI50 [48]: 20 µM (inactive)

O=C1C2=Cc3ccccc3OC2(O)Oc2ccccc21 (configuration not stated)
GI50 [49]: > 100 µM (inactive)
GI50 [50]: > 100 µM (inactive)
GI50 [2]: > 100 µM (inactive)
GI50 [51]: > 100 µM (inactive)
GI50 [3]: > 100 µM (inactive)
GI50 [4]: > 100 µM (inactive)
GI50 [5]: > 100 µM (inactive)
GI50 [6]: > 100 µM (inactive)
GI50 [7]: > 100 µM (inactive)
GI50 [8]: > 100 µM (inactive)
GI50 [9]: > 100 µM (inactive)
GI50 [10]: > 100 µM (inactive)
GI50 [11]: > 100 µM (inactive)
GI50 [12]: > 100 µM (inactive)
GI50 [13]: > 100 µM (inactive)
GI50 [52]: > 100 µM (inactive)
GI50 [53]: > 100 µM (inactive)
GI50 [15]: > 100 µM (inactive)
GI50 [54]: 57.8 µM (inactive)
GI50 [16]: > 100 µM (inactive)
GI50 [17]: > 100 µM (inactive)
GI50 [18]: > 100 µM (inactive)
GI50 [19]: 52.2 µM (inactive)
GI50 [55]: > 100 µM (inactive)
GI50 [20]: > 100 µM (inactive)
GI50 [22]: > 100 µM (inactive)
GI50 [56]: > 100 µM (inactive)
GI50 [24]: > 100 µM (inactive)
GI50 [25]: > 100 µM (inactive)
GI50 [26]: > 100 µM (inactive)
GI50 [28]: > 100 µM (inactive)
GI50 [29]: > 100 µM (inactive)
GI50 [30]: > 100 µM (inactive)
GI50 [31]: > 100 µM (inactive)
GI50 [32]: > 100 µM (inactive)
GI50 [57]: > 100 µM (inactive)
GI50 [33]: > 100 µM (inactive)
GI50 [34]: > 100 µM (inactive)
GI50 [35]: > 100 µM (inactive)
GI50 [37]: > 100 µM (inactive)
GI50 [38]: > 100 µM
GI50 [39]: > 100 µM (inactive)
GI50 [40]: > 100 µM (inactive)
GI50 [41]: > 100 µM (inactive)
GI50 [42]: > 100 µM (inactive)
GI50 [43]: > 100 µM (inactive)
GI50 [44]: > 100 µM (inactive)
GI50 [45]: 91.2 µM (inactive)
GI50 [46]: > 100 µM (inactive)
GI50 [47]: > 100 µM (inactive)
GI50 [48]: > 100 µM (inactive)
